# Test results published in patent publication US12528812B2 (Genentech, Inc., priority 2020, dated 2026).
# Experiments:
# [1] = biological target: Recombinant human JAK2 kinase domain protein (Residues 812-1132) (Homo sapiens, UniProt O60674); assay: JAK2 biochemical assay (LabChip mobility shift, Ki); conditions: Biochem JAK2 Ki
# [2] = test system: IL-13-stimulated STAT6 phosphorylation in human lung bronchial epithelial BEAS-2B cell line; assay: P-STAT6 BEAS-2B + IL-13 cell assay; assay type: cell-based; conditions: Homo sapiens, BEAS-2B, BEAS2B cells, IL13 stimulation; read-out: Cellular JAK1 PSTAT6 BEAS2B + IL13
# Protocol: In order to study the effect of JAK1 inhibitors in a cell line that is relevant to the cell biology of human asthma, an IL-13-stimulated STAT6 phosphorylation assay in the human lung bronchial epithelial BEAS-2B cell line was developed.
# BEAS-2B cells (ATCC′ CRL-9609™) were grown in Bronchial Epithelial Growth Medium (BEGM) (Lonza Catalog No. CC-3170; Walkersville, MD; or PromoCell Catalog No. C-21060; Heidelberg, Germany). Test compound stock solutions (0.5 mM in DMSO) were serially diluted 1:2 in DMSO to generate a 10-point concentration curve (at 500× test concentration), which was further diluted by a 50-fold dilution step in BEGM to generate a 10× concentration curve (in 2% DMSO). Cells were plated at 100,000 cells/well in 200 μL of BEGM in 96-well plates and incubated for 48 hours at 37° C. in a humidified incubator. Medium was aspirated from the cells and replaced with 70 μL of fresh BEGM. Diluted test compound (10 μL; or 2% DMSO in assay medium) was added to the cells, and the plates were incubated for 1 hour at 37° C. in a humidified incubator. Twenty μL of 250 ng/mL human recombinant IL-13 (Bio Techne Catalog No. 213-ILB) was then added to the cells and incubated for 15 minutes at 37° C. Medium was aspirated from the cells and 60 μL of ice-cold 1× cell lysis buffer (Cell Signaling Technologies; Catalog No. 9803S) containing 1 mM PMSF was added to the cells. Assay plates were incubated at −80° C. for at least 1 hour. P-STAT6 was measured by coating GAR plates (MSD; Catalog No. L45RA-1) with rabbit anti-human total STAT6 antibody (Cell Signaling Technologies; Catalog No. 9362S), incubating the cell lysates in the coated plates overnight at 4° C., and then detecting with mouse anti-phospho-STAT6 (Tyr641) Clone 16E12 antibody (Millipore; Catalog No. 05-590, custom labeled by MSD with SULFO-tag) using standard MSD plate processing, washing, and detection protocols. Plates were read on the MESO SECTOR 5600.
# Data analysis was performed by subtracting negative control values from all wells and determining percent of control using the positive control values; the IC50 was determined with a four-parameter logistic fit model as shown in Equation 4.
# [3] = biological target: T1, recombinant human JAK1 kinase domain protein (Residues 854-1154) (Homo sapiens, UniProt P23458); assay: JAK1 biochemical assay (LabChip mobility shift, Ki); conditions: read-out: Biochem JAK1 Ki
# T1 construct: human JAK1 kinase domain protein (Residues 854-1154); purchased Proteros Biostructures GmbH (Martinsried, Germany); host or cells: insect cells
# T1 sequence (P23458 854-1154): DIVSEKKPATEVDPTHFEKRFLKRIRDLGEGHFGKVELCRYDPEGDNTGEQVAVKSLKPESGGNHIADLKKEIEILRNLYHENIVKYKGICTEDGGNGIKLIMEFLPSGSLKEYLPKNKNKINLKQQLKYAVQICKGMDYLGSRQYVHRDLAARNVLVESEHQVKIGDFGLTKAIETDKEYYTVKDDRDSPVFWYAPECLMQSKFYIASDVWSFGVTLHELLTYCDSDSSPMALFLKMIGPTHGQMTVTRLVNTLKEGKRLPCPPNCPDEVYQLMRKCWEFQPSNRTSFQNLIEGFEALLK
# Sequence of Recombinant human JAK2 kinase domain protein (Residues 812-1132) (O60674 812-1132): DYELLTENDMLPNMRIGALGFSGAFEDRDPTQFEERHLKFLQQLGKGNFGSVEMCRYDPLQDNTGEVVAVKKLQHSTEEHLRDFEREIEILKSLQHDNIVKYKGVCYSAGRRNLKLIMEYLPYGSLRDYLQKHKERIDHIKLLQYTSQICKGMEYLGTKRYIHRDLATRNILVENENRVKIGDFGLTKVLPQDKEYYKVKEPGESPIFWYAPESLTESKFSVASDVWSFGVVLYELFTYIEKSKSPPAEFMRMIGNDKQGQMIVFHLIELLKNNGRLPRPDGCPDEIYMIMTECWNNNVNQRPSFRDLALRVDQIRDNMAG
SMILES,Ki [1] [nM],Ki [3] [nM],IC50 [2] [nM]
"CN(C)CCN1CC(O)(Cn2cc(Oc3ccc(OC(F)F)c(-c4nn(C)cc4NC(=O)c4cnn5cccnc45)c3)cn2)C1 [Example 198, N-[3-[2-(difluoromethoxy)-5-[1-[[1-[2-(dimethylamino)ethyl]-3-hydroxy-azetidin-3-yl]methyl]pyrazol-4-yl]oxy-phenyl]-1-methyl-pyrazol-4-yl]pyrazolo[1,5-a]pyrimidine-3-carboxamide]",0.83,1.5,1000
"CCn1cc(NC(=O)c2cnn3cccnc23)c(-c2cc(Oc3cccc(C4(O)CN(C)C4)c3)ccc2OC(F)F)n1 [Example 108, N-[3-[2-(difluoromethoxy)-5-[3-(3-hydroxy-l-methyl-azetidin-3-yl)phenoxy]phenyl]-1-ethyl-pyrazol-4-yl]pyrazolo[1,5-a]pyrimidine-3-carboxamide]",0.72,0.69,60
"Cn1cc(NC(=O)c2cnn3cccnc23)c(-c2cc(Oc3cc(CN)ccc3F)ccc2OC(F)F)n1 [Example 28, N-[3-[5-[5-(aminomethyl)-2-fluoro-phenoxy]-2-(difluoromethoxy)phenyl]-1-methyl-pyrazol-4-yl]pyrazolo[1,5-a]pyrimidine-3-carboxamide]",0.21,0.19,19
"CN1CCN(C(=O)Cc2ccc(Oc3ccc(OC(F)F)c(-c4nn(C)cc4NC(=O)c4cnn5cccnc45)c3)cc2)CC1 [Example 146, N-[3-[2-(difluoromethoxy)-5-[4-[2-(4-methylpiperazin-1-yl)-2-oxo-ethyl]phenoxy]phenyl]-1-methyl-pyrazol-4-yl]pyrazolo[1,5-a]pyrimidine-3-carboxamide]",0.29,0.62,40
"CN1CC(CC#N)(n2cc(Oc3ccc(OC(F)F)c(-c4nn(C)cc4NC(=O)c4cnn5cccnc45)c3)cn2)C1 [Example 117, N-[3-[5-[1-[3-(cyanomethyl)-1-methyl-azetidin-3-yl]pyrazol-4-yl]oxy-2-(difluoromethoxy)phenyl]-1-methyl-pyrazol-4-yl]pyrazolo[1,5-a]pyrimidine-3-carboxamide]",0.66,1.5,84
"Cc1c(Oc2ccc(OC(F)F)c(-c3nn(C)cc3NC(=O)c3cnn4cccnc34)c2)cnn1C [Example 152, N-[3-[2-(difluoromethoxy)-5-(1,5-dimethylpyrazol-4-yl)oxy-phenyl]-1-methyl-pyrazol-4-yl]pyrazol[1,5-a]pyrimidine-3-carboxamide]",0.3,0.31,20
"Cc1cc(Oc2ccc(OC(F)F)c(-c3nn(C)cc3NC(=O)c3cnn4cccnc34)c2)cc(C2(O)CNC2)c1 [Example 101, N-[3-[2-(difluoromethoxy)-5-[3-(3-hydroxyazetidin-3-yl)-5-methyl-phenoxy]phenyl]-1-methyl-pyrazol-4-yl]pyrazolo[1,5-a]pyrimidine-3-carboxamide]",0.23,0.2,180
"CN1CCCC(O)(Cn2cc(Oc3ccc(OC(F)F)c(-c4nn(C)cc4NC(=O)c4cnn5cccnc45)c3)cn2)CC1 (stereo not drawn) [Example 196, N-[3-[2-(difluoromethoxy)-5-[1-[(4-hydroxy-1-methyl-azepan-4-yl)methyl]pyrazol-4-yl]oxy-phenyl]-1-methyl-pyrazol-4-yl]pyrazolo[1,5-a]pyrimidine-3-carboxamide]",0.52,0.8,120
"Cn1cc(NC(=O)c2cnn3cccnc23)c(-c2cc(Oc3cc(Cl)cc(C4(O)CNC4)c3)ccc2OC(F)F)n1 [Example 99, N-[3-[5-[3-chloro-5-(3-hydroxyazetidin-3-yl)phenoxy]-2-(difluoromethoxy)phenyl]-1-methyl-pyrazol-4-yl]pyrazolo[1,5-a]pyrimidine-3-carboxamide]",0.31,0.19,78
"CN(C)CCn1cc(Oc2ccc(OC(F)F)c(-c3nn(C)cc3NC(=O)c3cnn4cccnc34)c2)cn1 [Example 73, N-[3-[2-(difluoromethoxy)-5-[1-[2-(dimethylamino)ethyl]pyrazol-4-yl]oxy-phenyl]-1-methyl-pyrazol-4-yl]pyrazolo[1,5-a]pyrimidine-3-carboxamide]",1.7,1.6,95
"CN1CCC(n2cc(Oc3ccc(OC(F)F)c(-c4nn(C)cc4NC(=O)c4cnn5cccnc45)c3)cn2)CC1 [Example 203, N-[3-[2-(difluoromethoxy)-5-[1-(1-methyl-4-piperidyl)pyrazol-4-yl]oxy-phenyl]-1-methyl-pyrazol-4-yl]pyrazolo[1,5-a]pyrimidine-3-carboxamide]",2.3,2.5,75

# The next lines start with results.
Ki [1] [nM],Ki [3] [nM],SMILES,IC50 [2] [nM]
1,1.7,"Cc1ccc(Oc2ccc(OC(F)F)c(-c3nn(CCN[C@H]4CCCOC4)cc3NC(=O)c3cnn4cccnc34)c2)cc1C(=O)N(C)C (racemic) [Example 83, N-[3-[2-(difluoromethoxy)-5-[3-(dimethylcarbamoyl)-4-methyl-phenoxy]phenyl]-1-[2-[[rac-(3R)-tetrahydropyran-3-yl]amino]ethyl]pyrazol-4-yl]pyrazolo[1,5-a]pyrimidine-3-carboxamide]",150
0.56,0.93,"CN1CCOC(c2cccc(Oc3ccc(OC(F)F)c(-c4nn(C)cc4NC(=O)c4cnn5cccnc45)c3)c2)C1 (stereo not drawn) [Example 30, N-[3-[2-(difluoromethoxy)-5-[3-(4-methylmorpholin-2-yl)phenoxy]phenyl]-1-methyl-pyrazol-4-yl]pyrazolo[1,5-a]pyrimidine-3-carboxamide]",40
0.72,1.2,"Cn1cc(NC(=O)c2cnn3cccnc23)c(-c2cc(Oc3cccc(CNC4COC4)c3)ccc2OC(F)F)n1 [Example 29, N-[3-[2-(difluoromethoxy)-5-[3-[(oxetan-3-ylamino)methyl]phenoxy]phenyl]-1-methyl-pyrazol-4-yl]pyrazolo[1,5-a]pyrimidine-3-carboxamide]",62
0.36,0.69,"CN1CC(O)(c2cc(Oc3ccc(OC(F)F)c(-c4nn(C)cc4NC(=O)c4cnn5cccnc45)c3)cc(C3CC3)c2)C1 [Example 110, N-[3-[5-[3-cyclopropyl-5-(3-hydroxy-l-methyl-azetidin-3-yl)phenoxy]-2-(difluoromethoxy)phenyl]-1-methyl-pyrazol-4-yl]pyrazolo[1,5-a]pyrimidine-3-carboxamide]",30
2.3,3,"NCc1cc(Oc2ccc(OC(F)F)c(-c3n[nH]cc3NC(=O)c3cnn4cccnc34)c2)ccc1C(F)(F)F [Example 52, N-[3-[5-[3-(aminomethyl)-4-(trifluoromethyl)phenoxy]-2-(difluoromethoxy)phenyl]-1H-pyrazol-4-yl]pyrazolo[1,5-a]pyrimidine-3-carboxamide]",91
0.69,1,"O=C(Nc1c[nH]nc1-c1cc(Oc2cccc(CNC3COC3)c2)ccc1OC(F)F)c1cnn2cccnc12 [Example 11, N-[3-[2-(difluoromethoxy)-5-[3-[(oxetan-3-ylamino)methyl]phenoxy]phenyl]-1H-pyrazol-4-yl]pyrazolo[1,5-a]pyrimidine-3-carboxamide]",190
